Earlier results as cited in publication PMC6525986 (Theranostics, 2019).

Target: protein arginine methyltransferase 5 (PRMT5) (Homo sapiens, UniProt O14744)
Test: PRMT5 enzymatic inhibition assay
Type: biochemical

Sequence of protein arginine methyltransferase 5 (PRMT5) (O14744 2-637): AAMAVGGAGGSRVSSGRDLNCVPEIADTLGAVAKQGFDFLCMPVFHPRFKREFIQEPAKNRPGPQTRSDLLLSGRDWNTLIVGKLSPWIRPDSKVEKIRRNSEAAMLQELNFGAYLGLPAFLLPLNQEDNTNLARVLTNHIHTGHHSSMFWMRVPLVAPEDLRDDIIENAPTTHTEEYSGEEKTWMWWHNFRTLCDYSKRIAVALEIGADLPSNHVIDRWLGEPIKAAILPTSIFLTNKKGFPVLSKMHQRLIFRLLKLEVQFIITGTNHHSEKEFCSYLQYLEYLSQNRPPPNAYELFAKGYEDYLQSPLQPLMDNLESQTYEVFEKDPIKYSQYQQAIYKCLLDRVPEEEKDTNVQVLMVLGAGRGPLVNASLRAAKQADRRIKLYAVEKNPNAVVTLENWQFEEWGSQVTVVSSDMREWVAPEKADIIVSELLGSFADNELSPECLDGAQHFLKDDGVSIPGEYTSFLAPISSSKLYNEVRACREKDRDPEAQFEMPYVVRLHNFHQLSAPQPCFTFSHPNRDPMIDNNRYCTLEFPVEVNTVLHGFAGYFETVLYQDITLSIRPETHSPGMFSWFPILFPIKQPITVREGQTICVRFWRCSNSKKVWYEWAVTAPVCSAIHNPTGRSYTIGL

In the case of DW14800 [compound 39], the IC50 is listed as 17 nM.
